Results taken from patent US20220133847A1, “COMPOSITIONS AND METHODS FOR ALLEVIATING PAIN” (priority 2020, published 2022).
Ends that are not written are not given here.

Tests used:
Cav3.3 = target: T1, Cav3.3 (Mus musculus, UniProt E9Q7P2); assay: Western blot of Cav3.3 protein levels in whole trigeminal ganglia lysates after peptide injection; assay type: in vivo; settings: FRICT-ION mice, whole TG lysates, four hours post injection, normalized to actin
T1 construct: Western blot analysis of Cav3.3 protein levels from whole TG lysates was performed; from tissue; host or cells: mouse trigeminal ganglia (FRICT-ION model)
T1 sequence (E9Q7P2 1-2199): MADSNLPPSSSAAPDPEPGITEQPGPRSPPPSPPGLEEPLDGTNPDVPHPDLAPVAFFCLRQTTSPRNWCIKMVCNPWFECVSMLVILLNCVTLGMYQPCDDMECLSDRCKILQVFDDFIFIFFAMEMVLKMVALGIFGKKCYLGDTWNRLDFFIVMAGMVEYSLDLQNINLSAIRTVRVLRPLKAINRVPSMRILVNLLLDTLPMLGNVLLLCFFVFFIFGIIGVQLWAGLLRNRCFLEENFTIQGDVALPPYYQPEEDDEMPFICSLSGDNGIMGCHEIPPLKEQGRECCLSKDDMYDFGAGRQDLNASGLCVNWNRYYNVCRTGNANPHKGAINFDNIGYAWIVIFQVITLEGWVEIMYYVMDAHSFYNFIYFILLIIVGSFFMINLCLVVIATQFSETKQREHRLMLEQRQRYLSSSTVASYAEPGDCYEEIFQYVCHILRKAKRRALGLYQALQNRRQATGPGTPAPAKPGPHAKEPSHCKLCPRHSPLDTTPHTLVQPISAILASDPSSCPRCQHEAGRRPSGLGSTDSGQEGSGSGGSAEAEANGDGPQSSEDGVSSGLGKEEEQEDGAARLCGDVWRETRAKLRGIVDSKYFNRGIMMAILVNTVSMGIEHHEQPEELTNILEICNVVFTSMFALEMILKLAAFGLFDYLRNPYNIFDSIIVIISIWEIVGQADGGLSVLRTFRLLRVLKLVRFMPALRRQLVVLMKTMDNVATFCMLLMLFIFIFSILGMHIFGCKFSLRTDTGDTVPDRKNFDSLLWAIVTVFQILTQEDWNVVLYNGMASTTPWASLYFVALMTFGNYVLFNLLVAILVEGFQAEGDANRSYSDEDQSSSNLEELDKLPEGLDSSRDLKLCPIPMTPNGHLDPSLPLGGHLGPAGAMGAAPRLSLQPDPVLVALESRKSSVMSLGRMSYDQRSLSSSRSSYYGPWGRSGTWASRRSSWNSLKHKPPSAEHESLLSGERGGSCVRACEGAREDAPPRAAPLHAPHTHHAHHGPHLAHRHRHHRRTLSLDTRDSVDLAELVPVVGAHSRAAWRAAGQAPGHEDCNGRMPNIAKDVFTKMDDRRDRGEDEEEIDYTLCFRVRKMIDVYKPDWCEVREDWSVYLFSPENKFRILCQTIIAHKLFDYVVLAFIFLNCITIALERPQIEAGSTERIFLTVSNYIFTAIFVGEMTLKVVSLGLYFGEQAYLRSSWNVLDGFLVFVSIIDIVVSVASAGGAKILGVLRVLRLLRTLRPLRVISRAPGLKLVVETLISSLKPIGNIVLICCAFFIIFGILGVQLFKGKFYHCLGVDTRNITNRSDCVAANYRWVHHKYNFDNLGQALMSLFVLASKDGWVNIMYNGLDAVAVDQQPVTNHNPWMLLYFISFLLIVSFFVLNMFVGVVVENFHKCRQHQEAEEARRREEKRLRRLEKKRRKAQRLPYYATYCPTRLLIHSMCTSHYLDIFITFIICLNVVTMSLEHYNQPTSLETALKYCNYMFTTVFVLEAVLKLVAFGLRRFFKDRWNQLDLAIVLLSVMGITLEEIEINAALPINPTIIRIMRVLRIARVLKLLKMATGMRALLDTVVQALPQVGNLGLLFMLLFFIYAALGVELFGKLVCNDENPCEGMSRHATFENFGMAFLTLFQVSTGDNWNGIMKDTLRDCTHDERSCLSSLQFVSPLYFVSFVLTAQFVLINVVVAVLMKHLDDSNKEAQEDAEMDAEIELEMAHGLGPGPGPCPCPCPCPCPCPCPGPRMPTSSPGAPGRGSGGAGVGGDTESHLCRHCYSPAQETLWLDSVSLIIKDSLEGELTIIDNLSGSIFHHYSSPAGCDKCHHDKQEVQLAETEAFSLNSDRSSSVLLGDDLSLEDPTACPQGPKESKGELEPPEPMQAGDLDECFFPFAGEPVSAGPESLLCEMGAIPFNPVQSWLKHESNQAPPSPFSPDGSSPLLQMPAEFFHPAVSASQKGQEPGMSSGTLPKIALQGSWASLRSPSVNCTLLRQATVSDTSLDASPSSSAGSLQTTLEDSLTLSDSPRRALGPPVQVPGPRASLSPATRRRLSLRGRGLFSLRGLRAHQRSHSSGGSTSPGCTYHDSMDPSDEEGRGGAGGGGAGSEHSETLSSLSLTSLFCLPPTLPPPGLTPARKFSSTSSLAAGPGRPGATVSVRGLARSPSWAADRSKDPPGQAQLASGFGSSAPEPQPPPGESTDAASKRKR
Description: Twelve male and female mice (8-10 weeks old, six mice per sex) were subject to the FRICT-ION model of trigeminal neuropathic pain. Three mice of each sex were administered TAT-C3P peptide (SEQ ID NO:1) and the remaining mice were administered TAT-C3D (SEQ ID NO:2) following the methods described above. Four hours post injection, mice were euthanized with pentobarbital (50 mg/kg) and both ipsilateral and contralateral trigeminal ganglia (TG) were removed. TG were washed immediately in PBS and stored at −80° C.
The TG for each of the four groups were pooled together (n=3) for protein extraction and homogenized using a pestle and 500 μL of 1×RIPA buffer (Thermo Fisher Scientific, Inc., Waltham, Mass.). Samples were put on a rocking shaker for two hours and then centrifuged, and supernatant removed to a new tube. Samples were assayed for total protein. […] Samples were then prepared for electrophoresis by mixing with 2× sample buffer and boiling for five minutes at 100° C. for denaturation.
Proteins were loaded on a 12% Tris-Glycine polyacrylamide gradient gel (Bio-Rad Laboratories, Inc., Hercules, Calif.) and transferred to a PVDF membrane (MilliporeSigma, Burlington, Mass.). […] Signal intensity was analyzed using ImageJ (Schneider et al., Nature Methods 9:671-675 (2012)) for comparisons.
Male and female mice were analyzed separately. […]

Cav3.3 channels = Cav3.3 channels (Homo sapiens, UniProt Q9P0X4); settings: cited from earlier work
Chain of Cav3.3 channels (Q9P0X4 whole entry): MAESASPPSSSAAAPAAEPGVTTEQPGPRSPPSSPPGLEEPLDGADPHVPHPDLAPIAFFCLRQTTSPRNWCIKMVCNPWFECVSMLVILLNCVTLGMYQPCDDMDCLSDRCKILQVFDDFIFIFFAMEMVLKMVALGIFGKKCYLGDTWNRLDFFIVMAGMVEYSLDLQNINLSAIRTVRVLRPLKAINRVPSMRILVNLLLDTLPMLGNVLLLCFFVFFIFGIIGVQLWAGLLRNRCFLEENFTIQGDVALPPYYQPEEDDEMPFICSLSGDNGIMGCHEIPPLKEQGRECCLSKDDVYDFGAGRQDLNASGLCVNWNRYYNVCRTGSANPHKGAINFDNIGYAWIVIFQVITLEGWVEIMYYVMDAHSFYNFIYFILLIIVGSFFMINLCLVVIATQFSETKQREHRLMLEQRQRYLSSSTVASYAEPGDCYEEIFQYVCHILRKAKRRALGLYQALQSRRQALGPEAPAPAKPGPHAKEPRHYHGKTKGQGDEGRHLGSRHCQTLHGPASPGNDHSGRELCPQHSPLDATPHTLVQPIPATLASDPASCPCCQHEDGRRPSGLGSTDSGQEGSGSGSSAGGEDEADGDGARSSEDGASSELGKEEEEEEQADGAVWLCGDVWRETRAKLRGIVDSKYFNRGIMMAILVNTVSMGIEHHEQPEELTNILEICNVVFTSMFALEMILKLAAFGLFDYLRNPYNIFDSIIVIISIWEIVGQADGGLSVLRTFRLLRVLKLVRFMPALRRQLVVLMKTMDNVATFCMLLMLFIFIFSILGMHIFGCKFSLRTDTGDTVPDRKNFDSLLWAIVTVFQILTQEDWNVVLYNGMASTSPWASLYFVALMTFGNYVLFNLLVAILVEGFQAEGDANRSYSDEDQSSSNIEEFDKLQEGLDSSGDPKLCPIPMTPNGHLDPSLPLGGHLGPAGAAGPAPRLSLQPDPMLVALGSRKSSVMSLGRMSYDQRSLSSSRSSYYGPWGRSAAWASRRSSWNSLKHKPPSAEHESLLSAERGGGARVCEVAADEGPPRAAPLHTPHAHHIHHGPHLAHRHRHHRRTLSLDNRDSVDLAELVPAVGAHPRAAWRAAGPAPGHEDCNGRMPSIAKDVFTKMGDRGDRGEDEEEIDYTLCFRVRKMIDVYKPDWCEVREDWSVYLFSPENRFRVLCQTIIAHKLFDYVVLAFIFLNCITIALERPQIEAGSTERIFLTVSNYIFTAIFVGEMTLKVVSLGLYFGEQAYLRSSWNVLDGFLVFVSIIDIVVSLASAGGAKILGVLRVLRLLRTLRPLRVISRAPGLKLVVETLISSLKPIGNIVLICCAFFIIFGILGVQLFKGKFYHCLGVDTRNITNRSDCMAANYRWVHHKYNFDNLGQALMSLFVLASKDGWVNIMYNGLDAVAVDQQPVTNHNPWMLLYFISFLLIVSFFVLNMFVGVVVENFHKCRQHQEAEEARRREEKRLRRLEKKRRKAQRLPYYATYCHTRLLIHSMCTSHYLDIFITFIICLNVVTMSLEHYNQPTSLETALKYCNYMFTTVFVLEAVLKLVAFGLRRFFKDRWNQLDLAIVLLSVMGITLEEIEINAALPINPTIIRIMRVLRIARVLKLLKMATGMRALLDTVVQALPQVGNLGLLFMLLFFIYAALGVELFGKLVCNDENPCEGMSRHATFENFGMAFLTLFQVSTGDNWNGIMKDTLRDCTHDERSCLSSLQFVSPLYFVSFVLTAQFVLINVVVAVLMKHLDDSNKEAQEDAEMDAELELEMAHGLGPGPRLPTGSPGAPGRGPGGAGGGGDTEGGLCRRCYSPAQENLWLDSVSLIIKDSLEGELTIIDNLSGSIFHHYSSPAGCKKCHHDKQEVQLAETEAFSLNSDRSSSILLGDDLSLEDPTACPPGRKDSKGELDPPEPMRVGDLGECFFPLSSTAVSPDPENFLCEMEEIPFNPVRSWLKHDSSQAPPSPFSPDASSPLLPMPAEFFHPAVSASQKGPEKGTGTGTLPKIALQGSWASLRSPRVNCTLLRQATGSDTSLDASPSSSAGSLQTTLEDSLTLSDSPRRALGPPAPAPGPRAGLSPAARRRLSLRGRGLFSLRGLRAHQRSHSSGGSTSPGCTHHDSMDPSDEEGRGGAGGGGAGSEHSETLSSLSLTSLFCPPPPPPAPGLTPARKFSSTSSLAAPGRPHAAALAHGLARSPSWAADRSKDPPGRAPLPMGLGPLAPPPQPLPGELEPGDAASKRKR

[1] = Experimental: FIG. 5. […] Animals were sacrificed, and tissues were harvested four hours post-injection.
A His-tagging method was used to assess the brain-penetrance of peptide therapeutics (Westlund et al., 2021, Neurobiol Pain 10:100067). Briefly, a His-tagged TAT-C3P peptide with the sequence […] (SEQ ID NO: 3) was ordered from Genscript. Protein content was assessed with Western blots using standard methods. Briefly, the sample protein was denatured, followed by gel electrophoresis to separate proteins by molecular weight. An anti-His-tag monoclonal antibody (C-terminal A01857, GenScript) that binds to the His-tag conjugated to the TAT-C3P peptide or anti-β-actin antibody (ab8226, Abcam, Cambridge, United Kingdom) was applied to the electrophoresis membrane. After washing off the antibody, specific secondary antibodies were added which recognized and bound to the primary antibodies. The secondary antibody was visualized through immunofluorescence probe attached to the secondary antibody, allowing indirect detection, validation, and semi-quantitative assessment of the specific target protein.

[2] = in vivo
T-type Ca2+ channels = settings: patients; cited from earlier work

Q: For “TAT-C3D: control peptide that does not block Cav3.3 channels, GRKKRRQRRRPQAVSSPARSGEPLHALSPRGTARSP (GRKKRRQRRRPQAVSSPARSGEPLHALSPRGTARSP; unkown; TAT-C3D (1)..(36))”, which “Cav3.3 protein levels in the trigeminal ganglia” value (Cav3.3) is on record?
A: Its value is “strongly present”.

Q: What about the “inhibition of Cav3.3” value (Cav3.3 channels) of the same compound?
A: Its value is “does not inhibit Cav3.3”.

Q: Which “CNS penetration following intraperitoneal injection” value ([1]; FRICT-ION mice) does the source give for “GRKKRRQRRRPQEESNKEAREDAELDAEIELEMAQG [TAT-C3P]” here?
A: The value was “penetrates the central nervous system”.

Q: And the side effects [2]?
A: Its side effects is “no major side effects”.

Q: With CCC1(C)CC(=O)NC1=O (stereo not drawn) [ethosuximide] as the compound, how does the “outcome of clinical trial for neuropathic pain” value (T-type Ca2+ channels) read?
A: Its value is “halted due to adverse events”.

Q: Which “His-tag bands in TG and medullary tissues” value ([1]; male FRICT-ION mice, tissues harvested four hours post-injection) does the source give for “GRKKRRQRRRPQEESNKEAREDAELDAEIELEMAQGHHHHHH [His-tagged TAT-C3P]” here?
A: Its value is “Bands were detected”.
